Laboratory results reported in ChEMBL document CHEMBL5728520, “Carboxamide-pyrimidine derivatives as SHP2 antagonists” (2021).

What follows are compounds tested against T1, Tyrosine-protein phosphatase non-receptor type 11 (Homo sapiens, UniProt Q06124) (assay: Biochemical Assay: The inhibition of SHP2 by compounds of the invention was monitored using the surrogate substrate DiFMUP after protein activation by a peptide bearing two appropriately spaced phosphotyrosine. Full length SHP2 protein (Recombinant HumanSHP-2, E. coli derived Ser2Arg593, N-terminal 6His tag from R&D systems; […]) was incubated with activating peptide, IRSI_2pY (New England Peptide, 140 nM) and DiFMUP (molecular probes, 80 uM) at RT in buffer (HEPES pH 7.2 60 mM, DDT 5 mM, KCl 75 mM, NaCl 75 mM, EDTA 1 mM, Tween 20 0.05%) in presence of compound (10 concentrations range, top concentration 50 Î¼M) for 60 min. The generation of the DiFMU product by activated SHP2 was monitored through Fluorescence measurement with a PerkinElmer Envision reader.).
T1 sequence (Q06124 whole entry): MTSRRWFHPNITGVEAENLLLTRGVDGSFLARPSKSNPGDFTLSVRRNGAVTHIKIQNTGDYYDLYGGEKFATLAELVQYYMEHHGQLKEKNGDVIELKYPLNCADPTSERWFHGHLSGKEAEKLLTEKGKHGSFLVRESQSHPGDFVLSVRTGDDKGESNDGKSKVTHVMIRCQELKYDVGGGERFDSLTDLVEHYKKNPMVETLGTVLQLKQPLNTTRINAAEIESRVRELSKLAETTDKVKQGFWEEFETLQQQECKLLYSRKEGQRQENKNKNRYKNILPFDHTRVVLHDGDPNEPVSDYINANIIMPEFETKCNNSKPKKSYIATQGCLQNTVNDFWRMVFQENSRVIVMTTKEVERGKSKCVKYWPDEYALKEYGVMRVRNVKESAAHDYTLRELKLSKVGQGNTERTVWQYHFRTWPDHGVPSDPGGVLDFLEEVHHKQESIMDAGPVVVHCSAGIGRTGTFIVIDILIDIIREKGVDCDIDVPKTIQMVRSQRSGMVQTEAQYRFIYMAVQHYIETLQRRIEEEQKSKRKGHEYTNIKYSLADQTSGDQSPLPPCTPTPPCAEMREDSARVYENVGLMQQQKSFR

Going from CC1(N)CCN(c2nc(Cl)c(-c3cccc(Cl)c3Cl)c(C(N)=O)n2)CC1 to CC1(N)CCN(c2ncc(-c3cccc(Cl)c3Cl)c(C(N)=O)n2)CC1, the IC50 rises from 0.06 µM to 3.7 µM (62-fold). The first is the more potent here.

For C[C@]12CCCCC[C@](C)(CN(c3nc(N)c(-c4cccc(Cl)c4Cl)c(C(N)=O)n3)C1)[C@H]2N, the IC50 was > 10 µM.
